Key:
Format in all cases: in vivo, Wistar rats
[1] = system: potassium oxonate and xanthine-induced hyperuricemic rats; test: serum uric acid levels in hyperuricemic rats; conditions: oral gavage once daily for 14 days, vs model group (group B)
Procedure: (§1) 48 healthy specific pathogen-free (SPF) male Wistar rats (7 weeks, body weight: (200±20) g) were selected. In order to acclimate to a new environment, the 48 male rats were maintained in the animal house with the temperature of 22° C., the humidity of 10% to 60%, and 12 h/12 h light/dark cycle, and fed with standard diet and water ad libitum for 1 week. After the 1 week of acclimating, all experimental rats were randomly assigned to the following 6 groups with 8 rats per group: a control group (group A), a model group (group B), a Lactiplantibacillus plantarum strain BL-17 treated group (group C), a galacto-oligosaccharide-adenylic acid treated group (group D), a combination treated group (group E), and an allopurinol intervention treated group (positive control) (group F). […]
(§2) At the late stage of the experiment, fresh feces of the rats were collected and frozen in a −80° C. refrigerator. […] After being collected, the liver tissue was immediately rinsed with pre-cooled normal saline to remove blood, rapidly frozen in liquid nitrogen and then frozen at −80° C., and subsequently homogenized into liver homogenate, and then relevant indicators were determined. […]

[2] = system: potassium oxonate and xanthine-induced hyperuricemic rats; test: serum creatinine levels in hyperuricemic rats; conditions: oral gavage once daily for 14 days, vs model group
Procedure: as §1, §2

[3] = system: potassium oxonate and xanthine-induced hyperuricemic rats; test: urinary uric acid level in hyperuricemic rats; conditions: oral gavage once daily for 14 days, vs model group (group B)
Procedure: as §1

XOD = test: activity of XOD in serum and liver tissues of hyperuricemic rats; conditions: oral gavage once daily for 14 days, vs model group
Procedure: as §1, §2

SMILES: Oc1ncnc2[nH]ncc12 [allopurinol]
- serum uric acid concentration compared with model group [1]: decrease
- serum creatinine levels compared with hyperuricemia model group [2]: decrease
- urinary uric acid levels compared with model group [3]: decrease to urinary uric acid levels in rats of the control group
- activities of XOD in serum and liver compared with model group (XOD): decrease to varying degrees
